Test results: ChEMBL document CHEMBL3046407, “Toxicity of monoterpenes against larvae and adults of Colorado potato beetle, Leptinotarsa decemlineata Say (Coleoptera: Chrysomelidae)” (2007)

Columns and labels:
Assay type in all cases: functional
[1] = system: Leptinotarsa decemlineata; test: Insecticidal activity against second-instar larval stage of Leptinotarsa decemlineata infested potato leaves assessed as mortality at 20 ul after 96 hr (reference value: 3.3 +/- 3.3%)
[2] = system: Leptinotarsa decemlineata; test: Insecticidal activity against second-instar larval stage of Leptinotarsa decemlineata infested potato leaves assessed as mortality at 20 ul after 48 hr (reference value: 3.3 +/- 3.3%)
[3] = system: Leptinotarsa decemlineata; test: Insecticidal activity against second-instar larval stage of Leptinotarsa decemlineata infested potato leaves assessed as mortality at 20 ul after 24 hr (reference value: 3.3 +/- 3.3%)
[4] = system: Leptinotarsa decemlineata; test: Insecticidal activity against second-instar larval stage of Leptinotarsa decemlineata infested potato leaves assessed as mortality at 10 ul after 12 hr relative to control
Sitophilus granarius = test: Insecticidal activity against Sitophilus granarius (granary weevil) assessed as mortality
[5] = system: Leptinotarsa decemlineata; test: Insecticidal activity against adult Leptinotarsa decemlineata infested potato leaves assessed as mortality at 20 ul after 96 hr relative to control
[6] = system: Leptinotarsa decemlineata; test: Insecticidal activity against adult Leptinotarsa decemlineata infested potato leaves assessed as mortality at 20 ul after 48 hr relative to control
[7] = system: Leptinotarsa decemlineata; test: Insecticidal activity against adult Leptinotarsa decemlineata infested potato leaves assessed as mortality at 20 ul after 24 hr relative to control
[8] = system: Leptinotarsa decemlineata; test: Insecticidal activity against adult Leptinotarsa decemlineata infested potato leaves assessed as mortality at 20 ul after 12 hr relative to control
[9] = system: Leptinotarsa decemlineata; test: Insecticidal activity against adult Leptinotarsa decemlineata infested potato leaves assessed as mortality at 10 ul after 96 hr relative to control
[10] = system: Leptinotarsa decemlineata; test: Insecticidal activity against adult Leptinotarsa decemlineata infested potato leaves assessed as mortality at 10 ul after 48 hr relative to control
[11] = system: Leptinotarsa decemlineata; test: Insecticidal activity against adult Leptinotarsa decemlineata infested potato leaves assessed as mortality at 10 ul after 24 hr relative to control
[12] = system: Leptinotarsa decemlineata; test: Insecticidal activity against adult Leptinotarsa decemlineata infested potato leaves assessed as mortality at 10 ul after 12 hr relative to control
[13] = system: Leptinotarsa decemlineata; test: Insecticidal activity against second-instar larval stage of Leptinotarsa decemlineata infested potato leaves assessed as mortality at 20 ul after 12 hr relative to control
[14] = system: Leptinotarsa decemlineata; test: Insecticidal activity against second-instar larval stage of Leptinotarsa decemlineata infested potato leaves assessed as mortality at 10 ul after 96 hr (reference value: 3.3 +/- 3.3%)
[15] = system: Leptinotarsa decemlineata; test: Insecticidal activity against second-instar larval stage of Leptinotarsa decemlineata infested potato leaves assessed as mortality at 10 ul after 48 hr (reference value: 3.3 +/- 3.3%)
[16] = system: Leptinotarsa decemlineata; test: Insecticidal activity against second-instar larval stage of Leptinotarsa decemlineata infested potato leaves assessed as mortality at 10 ul after 24 hr (reference value: 3.3 +/- 3.3%)
[17] = system: Leptinotarsa decemlineata; test: Insecticidal activity against first-instar larval stage of Leptinotarsa decemlineata infested potato leaves assessed as mortality at 20 ul after 96 hr relative to control
[18] = system: Leptinotarsa decemlineata; test: Insecticidal activity against first-instar larval stage of Leptinotarsa decemlineata infested potato leaves assessed as mortality at 20 ul after 48 hr relative to control
[19] = system: Leptinotarsa decemlineata; test: Insecticidal activity against first-instar larval stage of Leptinotarsa decemlineata infested potato leaves assessed as mortality at 20 ul after 24 hr relative to control
[20] = system: Leptinotarsa decemlineata; test: Insecticidal activity against first-instar larval stage of Leptinotarsa decemlineata infested potato leaves assessed as mortality at 20 ul after 12 hr relative to control
[21] = system: Leptinotarsa decemlineata; test: Insecticidal activity against first-instar larval stage of Leptinotarsa decemlineata infested potato leaves assessed as mortality at 10 ul after 96 hr relative to control
[22] = system: Leptinotarsa decemlineata; test: Insecticidal activity against first-instar larval stage of Leptinotarsa decemlineata infested potato leaves assessed as mortality at 10 ul after 48 hr relative to control
[23] = system: Leptinotarsa decemlineata; test: Insecticidal activity against first-instar larval stage of Leptinotarsa decemlineata infested potato leaves assessed as mortality at 10 ul after 12 hr relative to control
[24] = system: Leptinotarsa decemlineata; test: Insecticidal activity against first-instar larval stage of Leptinotarsa decemlineata infested potato leaves assessed as mortality at 10 ul after 24 hr relative to control
[25] = system: Leptinotarsa decemlineata; test: Insecticidal activity against third-instar larval stage of Leptinotarsa decemlineata infested potato leaves assessed as mortality at 20 ul after 96 hr (reference value: 3.3 +/- 3.3%)
[26] = system: Leptinotarsa decemlineata; test: Insecticidal activity against third-instar larval stage of Leptinotarsa decemlineata infested potato leaves assessed as mortality at 20 ul after 48 hr (reference value: 3.3 +/- 3.3%)
[27] = system: Leptinotarsa decemlineata; test: Insecticidal activity against third-instar larval stage of Leptinotarsa decemlineata infested potato leaves assessed as mortality at 20 ul after 24 hr relative to control
[28] = system: Leptinotarsa decemlineata; test: Insecticidal activity against third-instar larval stage of Leptinotarsa decemlineata infested potato leaves assessed as mortality at 20 ul after 12 hr relative to control
[29] = system: Leptinotarsa decemlineata; test: Insecticidal activity against third-instar larval stage of Leptinotarsa decemlineata infested potato leaves assessed as mortality at 10 ul after 96 hr (reference value: 3.3 +/- 3.3%)
[30] = system: Leptinotarsa decemlineata; test: Insecticidal activity against third-instar larval stage of Leptinotarsa decemlineata infested potato leaves assessed as mortality at 10 ul after 48 hr (reference value: 3.3 +/- 3.3%)
[31] = system: Leptinotarsa decemlineata; test: Insecticidal activity against third-instar larval stage of Leptinotarsa decemlineata infested potato leaves assessed as mortality at 10 ul after 24 hr relative to control
[32] = system: Leptinotarsa decemlineata; test: Insecticidal activity against third-instar larval stage of Leptinotarsa decemlineata infested potato leaves assessed as mortality at 10 ul after 12 hr relative to control

CC(C)[C@H]1CC[C@H](C)CC1=O (relative stereo) [REL-MENTHONE]
mortality [1]: 56.7% | mortality [2]: 56.7% | mortality [3]: 53.3% | mortality [4]: 13.3% | mortality (Sitophilus granarius): 90% | mortality [5]: 100% | mortality [6]: 100% | mortality [7]: 100% | mortality [8]: 83.3% | mortality [9]: 100% | mortality [10]: 100% | mortality [11]: 93.3% | mortality [12]: 70% | mortality [13]: 26.7% | mortality [14]: 36.7% | mortality [15]: 33.3% | mortality [16]: 33.3% | mortality [17]: 66.7% | mortality [18]: 56.7% | mortality [19]: 53.3% | mortality [20]: 26.7% | mortality [21]: 50% | mortality [22]: 40% | mortality [23]: 6.7% | mortality [24]: 23.3% | mortality [25]: 50% | mortality [26]: 43.3% | mortality [27]: 30% | mortality [28]: 23.3% | mortality [29]: 56.7% | mortality [30]: 53.3% | mortality [31]: 50% | mortality [32]: 30%
